Reference: ChEMBL document CHEMBL1275334, “5-Piperazinyl-3-sulfonylindazoles as potent and selective 5-hydroxytryptamine-6 antagonists” (J Med Chem, 2010)
The source made the active and inactive calls. The rule behind the calls is not given here.

Legend:
[1] = Ratio of drug level in brain to plasma in rat at 10 mg/kg, po; format: ADME, organism-based; parameters: dose 10 mg/kg, route oral; conditions: read-out: BPR
Rattus norvegicus [2] = assay: Induction of glutamate release in hippocampus of rat at 10 mg/kg, po; format: functional, organism-based; parameters: dose 10 mg/kg
Rattus norvegicus [3] = assay: Inhibition of scopolamine-induced memory deficit in po dosed rat by novel object recognition test; format: functional; conditions: read-out: MED
[4] = molecular target: 5-hydroxytryptamine receptor 7 (Homo sapiens, UniProt P34969); assay: Displacement of [3H]LSD from human cloned 5HT7 receptor expressed in human HeLa cells; format: cell-based
Rattus norvegicus [5] = assay: Induction of acetylcholine release in hippocampus of rat at 10 mg/kg, po; format: functional, organism-based; parameters: dose 10 mg/kg
D(2) dopamine receptor = D(2) dopamine receptor (Homo sapiens, UniProt P14416); assay: Displacement of [3H]LSD from human cloned dopamine D2 receptor expressed in human HeLa cells; format: cell-based
[6] = molecular target: 5-hydroxytryptamine receptor 1D (Homo sapiens, UniProt P28221); assay: Displacement of [3H]LSD from human cloned 5HT1D receptor expressed in human HeLa cells; format: cell-based
[7] = molecular target: T1, Alpha-2A adrenergic receptor (Homo sapiens, UniProt P08913); assay: Displacement of [3H]LSD from human cloned alpha2A adrenergic receptor expressed in human HeLa cells; format: cell-based
T1 sequence (P08913 whole entry): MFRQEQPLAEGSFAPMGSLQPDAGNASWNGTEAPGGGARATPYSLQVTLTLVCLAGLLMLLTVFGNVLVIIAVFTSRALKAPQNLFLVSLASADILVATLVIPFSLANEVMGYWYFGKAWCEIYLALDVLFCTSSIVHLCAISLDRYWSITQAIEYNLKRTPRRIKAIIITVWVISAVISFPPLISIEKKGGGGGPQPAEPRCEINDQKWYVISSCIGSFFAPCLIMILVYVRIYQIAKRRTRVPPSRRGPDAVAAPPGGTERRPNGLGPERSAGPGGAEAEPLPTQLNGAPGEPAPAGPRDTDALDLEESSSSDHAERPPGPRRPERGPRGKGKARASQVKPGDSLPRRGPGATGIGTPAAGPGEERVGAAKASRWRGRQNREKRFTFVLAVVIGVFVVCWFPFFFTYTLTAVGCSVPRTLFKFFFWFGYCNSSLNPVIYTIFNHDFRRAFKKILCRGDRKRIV

[8] = molecular target: T2, 5-hydroxytryptamine receptor 2B (Homo sapiens, UniProt P41595); assay: Agonist activity at human recombinant 5HT2B receptor expressed in CHOK1 cells at 0.0001 to 10 uM by FLIPR assay; format: functional, cell-based; conditions: CHO-K1
[9] = molecular target: T3, 5-hydroxytryptamine receptor 6 (Homo sapiens, UniProt P50406); assay: Antagonist activity at human cloned 5HT6 receptor expressed in human HeLa cells by cyclase assay; format: functional, cell-based
[10] = Oral bioavailability in dog at 10 mg/kg; format: ADME, organism-based, Canis lupus familiaris; conditions: in vivo
[11] = Ratio of drug level in brain to plasma in dog at 10 mg/kg, po; format: ADME, organism-based, Canis lupus familiaris; parameters: dose 10 mg/kg, route oral; conditions: read-out: BPR
Rattus norvegicus [12] = assay: Enhancement of memory in po dosed rat assessed as minimum effective dose measured after 48 hrs delay by novel object recognition test; format: functional; conditions: read-out: MED
[13] = molecular target: 5-hydroxytryptamine receptor 1B (Homo sapiens, UniProt P28222); assay: Displacement of [3H]LSD from human cloned 5HT1B receptor expressed in human HeLa cells; format: cell-based
[14] = molecular target: T4, 5-hydroxytryptamine receptor 1A (Homo sapiens, UniProt P08908); assay: Displacement of [3H]LSD from human cloned 5HT1A receptor expressed in human HeLa cells; format: cell-based
T4 sequence (P08908 whole entry): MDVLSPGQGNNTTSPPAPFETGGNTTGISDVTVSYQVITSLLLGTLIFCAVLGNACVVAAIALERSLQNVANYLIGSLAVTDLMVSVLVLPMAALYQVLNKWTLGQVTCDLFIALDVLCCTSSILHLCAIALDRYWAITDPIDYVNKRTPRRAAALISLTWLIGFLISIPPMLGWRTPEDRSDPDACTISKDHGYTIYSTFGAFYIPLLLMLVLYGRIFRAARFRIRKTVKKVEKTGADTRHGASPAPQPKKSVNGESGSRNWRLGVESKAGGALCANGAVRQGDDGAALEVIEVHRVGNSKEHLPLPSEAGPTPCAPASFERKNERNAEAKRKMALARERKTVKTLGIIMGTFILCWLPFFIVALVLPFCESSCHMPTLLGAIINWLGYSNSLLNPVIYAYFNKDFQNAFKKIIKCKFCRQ

[15] = molecular target: T2, 5-hydroxytryptamine receptor 2B; assay: Displacement of [3H]LSD from human cloned 5HT2B receptor expressed in human HeLa cells; format: cell-based
[16] = Protein binding in rat brain at 10 mg/kg, po; format: ADME, organism-based; parameters: dose 10 mg/kg, route oral; conditions: read-out: PPB (converted)
[17] = Plasma protein binding in rat at 10 mg/kg, po; format: ADME, organism-based; parameters: dose 10 mg/kg, route oral; conditions: read-out: PPB (converted)
[18] = molecular target: T5, 5-hydroxytryptamine receptor 2C (Homo sapiens, UniProt P28335); assay: Displacement of [3H]LSD from human cloned 5HT2C receptor expressed in human HeLa cells; format: cell-based
T5 sequence (P28335 whole entry): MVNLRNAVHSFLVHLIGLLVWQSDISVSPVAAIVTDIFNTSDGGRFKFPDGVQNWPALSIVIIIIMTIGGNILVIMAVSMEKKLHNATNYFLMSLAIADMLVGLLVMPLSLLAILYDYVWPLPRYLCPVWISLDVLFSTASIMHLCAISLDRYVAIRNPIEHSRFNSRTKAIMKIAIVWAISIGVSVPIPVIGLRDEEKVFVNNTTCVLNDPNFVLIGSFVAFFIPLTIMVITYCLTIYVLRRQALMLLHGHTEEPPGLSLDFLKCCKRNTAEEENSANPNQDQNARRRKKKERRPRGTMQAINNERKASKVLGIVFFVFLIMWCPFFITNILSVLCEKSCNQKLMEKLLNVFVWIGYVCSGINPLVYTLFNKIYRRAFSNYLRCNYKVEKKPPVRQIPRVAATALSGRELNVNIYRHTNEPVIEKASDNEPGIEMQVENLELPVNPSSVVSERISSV

[19] = Solubility of the compound in water; format: physicochemical
Rattus norvegicus [20] = assay: Enhancement of memory in po dosed rat measured after 48 hrs delay by novel object recognition test; format: functional, organism-based
[21] = Oral bioavailability in rat at 10 mg/kg; format: ADME, organism-based; conditions: in vivo
[22] = molecular target: T3, 5-hydroxytryptamine receptor 6; assay: Antagonist activity at human cloned 5HT6 receptor expressed in human HeLa cells by cyclase assay relative to control; format: functional, cell-based

T2 sequence (P41595 whole entry): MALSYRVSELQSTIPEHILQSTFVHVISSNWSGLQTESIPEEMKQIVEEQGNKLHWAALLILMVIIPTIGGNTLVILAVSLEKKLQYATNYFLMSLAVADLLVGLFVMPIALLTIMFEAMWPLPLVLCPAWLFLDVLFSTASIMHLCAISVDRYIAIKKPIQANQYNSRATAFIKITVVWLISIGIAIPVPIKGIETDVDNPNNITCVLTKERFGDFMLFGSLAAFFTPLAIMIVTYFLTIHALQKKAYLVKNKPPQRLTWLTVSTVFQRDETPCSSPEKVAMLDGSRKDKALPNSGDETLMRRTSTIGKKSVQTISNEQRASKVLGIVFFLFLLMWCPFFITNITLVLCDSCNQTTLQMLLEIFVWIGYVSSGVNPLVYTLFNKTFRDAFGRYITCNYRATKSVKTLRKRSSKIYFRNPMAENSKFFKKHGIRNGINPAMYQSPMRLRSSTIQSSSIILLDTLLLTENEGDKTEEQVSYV
T3 sequence (P50406 whole entry): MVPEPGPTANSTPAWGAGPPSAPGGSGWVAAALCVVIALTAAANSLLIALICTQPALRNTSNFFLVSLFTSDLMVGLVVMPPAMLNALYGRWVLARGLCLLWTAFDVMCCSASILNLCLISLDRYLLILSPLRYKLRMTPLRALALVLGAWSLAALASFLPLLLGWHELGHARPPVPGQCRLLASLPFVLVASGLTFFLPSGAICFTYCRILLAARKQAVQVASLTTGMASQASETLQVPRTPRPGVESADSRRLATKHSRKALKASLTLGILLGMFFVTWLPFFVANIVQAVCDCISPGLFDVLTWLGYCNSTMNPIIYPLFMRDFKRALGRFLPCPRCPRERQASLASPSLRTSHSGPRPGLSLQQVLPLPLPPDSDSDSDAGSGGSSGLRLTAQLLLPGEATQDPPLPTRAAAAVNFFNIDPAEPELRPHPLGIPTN
Chain of 5-hydroxytryptamine receptor 1D (P28221 whole entry): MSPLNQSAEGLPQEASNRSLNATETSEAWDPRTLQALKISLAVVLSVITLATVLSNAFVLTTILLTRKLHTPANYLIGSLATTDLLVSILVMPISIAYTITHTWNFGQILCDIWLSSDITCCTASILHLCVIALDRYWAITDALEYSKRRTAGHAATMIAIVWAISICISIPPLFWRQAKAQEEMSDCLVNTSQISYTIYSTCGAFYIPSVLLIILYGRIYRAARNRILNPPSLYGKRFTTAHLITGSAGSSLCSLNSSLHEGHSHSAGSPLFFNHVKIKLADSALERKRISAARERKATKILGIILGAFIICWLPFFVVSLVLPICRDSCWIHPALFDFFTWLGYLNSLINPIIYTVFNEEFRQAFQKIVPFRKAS
Chain of 5-hydroxytryptamine receptor 1B (P28222 whole entry): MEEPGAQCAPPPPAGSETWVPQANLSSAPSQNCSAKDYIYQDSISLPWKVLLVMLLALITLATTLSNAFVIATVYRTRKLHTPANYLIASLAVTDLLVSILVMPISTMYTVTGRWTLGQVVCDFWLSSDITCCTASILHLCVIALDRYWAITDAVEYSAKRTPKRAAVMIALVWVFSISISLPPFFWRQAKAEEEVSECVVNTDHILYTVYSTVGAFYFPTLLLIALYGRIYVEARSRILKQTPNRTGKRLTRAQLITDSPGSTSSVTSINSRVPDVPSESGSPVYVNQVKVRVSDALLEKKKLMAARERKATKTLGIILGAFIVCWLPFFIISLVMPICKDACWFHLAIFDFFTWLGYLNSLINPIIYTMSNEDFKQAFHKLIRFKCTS
Chain of D(2) dopamine receptor (P14416 whole entry): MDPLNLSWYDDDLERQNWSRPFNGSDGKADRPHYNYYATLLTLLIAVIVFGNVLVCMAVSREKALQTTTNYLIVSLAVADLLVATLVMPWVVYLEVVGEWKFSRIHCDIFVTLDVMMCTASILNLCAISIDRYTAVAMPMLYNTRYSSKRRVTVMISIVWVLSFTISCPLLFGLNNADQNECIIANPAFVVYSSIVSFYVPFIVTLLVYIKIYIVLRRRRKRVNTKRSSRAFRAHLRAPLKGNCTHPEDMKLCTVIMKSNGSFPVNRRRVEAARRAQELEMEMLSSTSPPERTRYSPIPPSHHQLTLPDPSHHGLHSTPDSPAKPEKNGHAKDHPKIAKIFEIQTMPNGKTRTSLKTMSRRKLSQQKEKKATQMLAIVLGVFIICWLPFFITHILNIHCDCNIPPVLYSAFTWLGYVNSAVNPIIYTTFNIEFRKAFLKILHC
Chain of 5-hydroxytryptamine receptor 7 (P34969 whole entry): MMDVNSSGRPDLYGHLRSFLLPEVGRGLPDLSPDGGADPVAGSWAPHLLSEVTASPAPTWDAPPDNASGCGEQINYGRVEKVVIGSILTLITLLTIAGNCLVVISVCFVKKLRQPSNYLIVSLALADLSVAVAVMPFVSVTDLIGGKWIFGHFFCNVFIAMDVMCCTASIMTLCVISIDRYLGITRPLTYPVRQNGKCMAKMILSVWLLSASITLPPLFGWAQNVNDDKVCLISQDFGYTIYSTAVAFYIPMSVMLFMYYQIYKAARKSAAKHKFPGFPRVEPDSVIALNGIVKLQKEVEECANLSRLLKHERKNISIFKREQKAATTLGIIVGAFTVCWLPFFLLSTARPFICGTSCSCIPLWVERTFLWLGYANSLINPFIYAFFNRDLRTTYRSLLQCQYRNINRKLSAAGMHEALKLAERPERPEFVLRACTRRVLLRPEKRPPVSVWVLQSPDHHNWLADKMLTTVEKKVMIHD

- Kp [1]: < 0.2
- Ki [4]: 1560 nM
- Ki (D(2) dopamine receptor): > 5000 nM
- Ki [6]: > 5000 nM
- Ki [7]: > 5000 nM
- Activity [8]: inactive
- IC50 [9]: 13 nM
- bioavailability [10]: > 20%
- Kp [11]: < 0.2
- Ki [13]: > 5000 nM
- Ki [14]: 573 nM
- Ki [15]: 236 nM
- fraction unbound [16]: 0.2
- fraction unbound [17]: 0.2
- Ki [18]: > 5000 nM
- solubility [19]: > 100 µg/mL
- bioavailability [21]: > 20%
- Imax [22]: 100%
Structure (SMILES): O=S(=O)(c1cccc2ccccc12)c1n[nH]c2ccc(N3CCNCC3)cc12
- Activity (Rattus norvegicus [2]): Active
- minimal effective dose (Rattus norvegicus [3]): 0.03 mg/kg
- Activity (Rattus norvegicus [5]): Active
- minimal effective dose (Rattus norvegicus [12]): 3 mg/kg
- Activity (Rattus norvegicus [20]): Dose-dependent effect
